Tested on: phospho-p90RSK in A375 cell line
Assay: A375 Phospho-p90RSK Cellular Assay
Format: cell-based, human
Details: Homo sapiens, A-375, 2 h, A375 cells, 2 hours incubation
Procedure, shortened: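 A375 cells (2400/well, DMEM/10% FCS) seeded overnight, then dosed over a 12-point range from 30 μM down to 0.00003 μM (0.3% DMSO) for 2 h at 37 °C. Fixed cells were immunostained for phospho-p90RSK Thr359 with Hoechst nuclear counterstain and read by high-content imaging; IC50s fitted from dose-response.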

Structure (SMILES): COC[C@H]1Cn2cc(-c3nc(Nc4ccnn4C)ncc3C)nc2C(=O)N1Cc1ccc(F)c(F)c1 [Example 18, (R)-7-(3,4-Difluorobenzyl)-6-(methoxymethyl)-2-(5-methyl-2-((1-methyl-1H-pyrazol-5-yl)amino)pyrimidin-4-yl)-6,7-dihydroimidazo[1,2-a]pyrazin-8(5H)-one]
- IC50: 5.7 nM
